Where two headings read alike, the source gives them in different places.
Target: T1, α5β3γ2 GABAA receptors (Ltk cell membranes) (Homo sapiens, UniProt P18507+P31644)
T1 construct: membranes
Test: Binding activity of test compounds on GABAAR: inhibition of [3H]Ro15-1788 binding
Experimental: Tissue culture and Membrane Preparation: The binding was performed on Ltk cells stably expressing GABAA receptors: α1β1γ2, α2β3γ2, α3β3γ2 and α5β3γ2 (provided by Merck Co., NJ, USA). Cells were seeded in 100 mm culture plates in DMEM/F12 medium containing 10% serum and antibiotics in 5% CO2 and allowed to grow for 1-2 days. GABAAR expression was then induced by dexamethasone as follows: 0.5 μM for 1 day for α5 containing and 2μM for 3 days for α1, α2 and α3 containing GABAARs. After induction, cells were collected by scraping into Dulbecco's Phosphate buffered saline (DPBS, pH 7.4, Invitrogen, Carlsbad, Calif., USA) and centrifuged at 150×g for 10 min. The pellet was washed twice by re-suspension and centrifugation. The cell pellets from at least 5 different preps were combined, suspended in the binding assay buffer (50 mM KH2P4; 1 mM EDTA; 0.2 M KCl, pH 7.4) and membranes prepared by sonication (3-5 times, 30 sec) using Branson Sonifier 150 (G.Heinmann, Germany). Protein content was determined using BCA assay (Bio-Rad Labs, Reinach, Switzerland) with Bovine Serum Albumin (Sigma Aldrich, St. Louis, Mo., USA) as the standard. Aliquots were prepared and stored at −20° C. for further use in binding assays.
Ligand Binding: Saturation binding curves were obtained by incubating membranes with increasing concentrations (0.01-8 nM) of [^3H]Ro15-1788 (Flumazepil, 75-85 Ci/mmol, PerkinElmer, MA, USA), with nonspecific binding measured in the presence of 10 μM diazepam.
All binding assays were performed for 1 h at 4° C. in assay buffer. The total assay volume was 0.5 ml containing 0.2 mg/ml protein for α5 and 0.4 mg/ml for α1, α2, and α3 containing GABAAR membranes. Incubations were terminated by filtration through GF/B filters using a 24-Cell Harvestor (Brandel, Gaithersburg, Md., USA) followed by 3 washes with ice-cold assay buffer. Filters were transferred to scintillation vials, 5 ml scintillation liquid added, vortex-mixed and kept in dark. Next day, radioactivity was obtained using a scintillation counter (Beckman Coulter, Brea, Calif., USA). All assays were performed in triplicate.
Data Analyses: Saturation and inhibition curves were obtained using GraphPad Prism software (GraphPad Software, Inc., CA, USA).

[1] = GABA α5 Binding Ki Values, inhibition of [3H]Ro15-1788 binding, reported as ranges

T1 sequence (P31644 32-462): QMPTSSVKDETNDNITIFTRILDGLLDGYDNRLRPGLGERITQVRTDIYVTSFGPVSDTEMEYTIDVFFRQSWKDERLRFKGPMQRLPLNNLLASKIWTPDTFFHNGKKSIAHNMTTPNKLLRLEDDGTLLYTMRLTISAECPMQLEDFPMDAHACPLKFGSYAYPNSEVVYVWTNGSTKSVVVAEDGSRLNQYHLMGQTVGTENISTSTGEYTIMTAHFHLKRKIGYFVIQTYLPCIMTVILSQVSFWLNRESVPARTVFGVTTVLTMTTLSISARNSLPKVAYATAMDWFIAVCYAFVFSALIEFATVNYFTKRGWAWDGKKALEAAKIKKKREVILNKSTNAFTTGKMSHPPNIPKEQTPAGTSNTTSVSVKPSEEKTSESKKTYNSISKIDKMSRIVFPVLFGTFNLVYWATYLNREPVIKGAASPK
T1 sequence (P28472 26-473 partner): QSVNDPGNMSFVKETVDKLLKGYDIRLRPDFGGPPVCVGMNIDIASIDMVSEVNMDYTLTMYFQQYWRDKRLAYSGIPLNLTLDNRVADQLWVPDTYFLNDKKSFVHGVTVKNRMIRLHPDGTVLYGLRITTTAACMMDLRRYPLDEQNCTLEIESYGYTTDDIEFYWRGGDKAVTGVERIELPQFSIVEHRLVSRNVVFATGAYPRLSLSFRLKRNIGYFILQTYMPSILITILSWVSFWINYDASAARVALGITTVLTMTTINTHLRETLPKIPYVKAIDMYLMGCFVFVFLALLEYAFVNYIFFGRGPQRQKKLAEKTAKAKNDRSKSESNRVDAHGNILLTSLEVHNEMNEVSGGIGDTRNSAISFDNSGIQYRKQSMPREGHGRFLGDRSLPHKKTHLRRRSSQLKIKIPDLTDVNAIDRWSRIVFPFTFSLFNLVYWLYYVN
T1 sequence (P18507 40-475): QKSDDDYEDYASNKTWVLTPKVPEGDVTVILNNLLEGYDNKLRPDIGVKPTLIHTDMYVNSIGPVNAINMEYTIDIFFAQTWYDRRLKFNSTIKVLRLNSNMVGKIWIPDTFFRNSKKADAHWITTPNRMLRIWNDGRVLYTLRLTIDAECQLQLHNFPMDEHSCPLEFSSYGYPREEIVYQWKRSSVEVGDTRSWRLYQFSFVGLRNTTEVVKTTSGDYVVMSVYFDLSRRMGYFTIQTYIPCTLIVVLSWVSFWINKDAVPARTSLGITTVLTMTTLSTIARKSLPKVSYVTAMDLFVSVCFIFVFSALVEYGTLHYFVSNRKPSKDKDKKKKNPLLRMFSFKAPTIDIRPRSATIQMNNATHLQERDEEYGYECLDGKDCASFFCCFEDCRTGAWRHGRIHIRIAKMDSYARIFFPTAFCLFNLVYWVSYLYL

| Structure (SMILES) | Ki [1] [nM] | Ki [nM] |
| --- | --- | --- |
| COCc1nnc2n1Cc1c(-c3nc(C)no3)ncn1-c1ccc(C(F)(F)F)cc1-2 [Compound 459] | < 100 | – |
| CC#Cc1ncn2c1Cn1c(COC)nnc1-c1cc(Cl)ccc1-2 [Compound 339] | < 100 | – |
| CCOC(=O)c1ncn2c1Cc1c(Cc3ccc(Cl)cc3)nnn1-c1cc(F)ccc1-2 [Compound 45] | < 100 | – |
| CCOC(=O)c1ncn2c1Cc1c(COc3ccccc3)nnn1-c1cc(F)ccc1-2 [Compound 107] | < 100 | – |
| COc1ccc2c(c1)-c1nnc(COc3ccccc3)n1Cc1c(C(=O)OC(C)C)ncn1-2 [Compound 120] | < 100 | – |
| CCOC(=O)c1ncn2c1Cc1c(C#Cc3ccccc3)nnn1-c1cc(OC)ccc1-2 [Compound 318] | 100 to 1000 | – |
| Cc1nnn2c1Cc1c(C(=O)OCC(F)(F)F)ncn1-c1ccc(F)cc1-2 [Compound 114] | < 100 | – |
| Clc1ccc2c(c1)-n1nncc1Cc1c(Br)ncn1-2 [Compound 452] | < 100 | – |
| Cc1nnn2c1Cc1c(-c3nc(C(C)C)no3)ncn1-c1ccccc1-2 [Compound 132] | < 100 | – |
| COc1ccc2c(c1)-c1nnc(COc3ccc(F)cc3)n1Cc1c(-c3noc(C(C)C)n3)ncn1-2 [Compound 172] | < 100 | – |
| FC(F)=Cc1ncn2c1Cn1c(COc3ccccc3)nnc1-c1cc(Cl)ccc1-2 [Compound 199] | < 100 | – |
| COCc1nnc2n1Cc1c(-c3noc(C(C)C)n3)ncn1-c1ccc(OC)cc1-2 [Compound 169] | < 100 | – |
| CC1(C)COC(c2ncn3c2Cc2cnnn2-c2cc(Cl)ccc2-3)=N1 [Compound 364] | < 100 | – |
| COCc1nnc2n1Cc1c(-c3nc(C(C)C)no3)ncn1-c1ccc(Cl)cc1-2 [Compound 206] | < 100 | – |
| FC(F)(F)COCc1nnc2n1Cc1c(C3=N[C@@H](c4ccccc4)CO3)ncn1-c1ccc(Cl)cc1-2 [Compound 304] | < 100 | – |
| CC(C)OCc1nnc2n1Cc1c(-c3ncco3)ncn1-c1ccc(Cl)cc1-2 [Compound 327] | < 100 | – |
| COc1ccc2c(c1)-n1nnc(COc3ccc(F)cc3)c1Cc1c(-c3noc(C)n3)ncn1-2 [Compound 180] | < 100 | – |
| COCc1nnc2n1Cc1c(C3=N[C@H](c4ccccc4)CO3)ncn1-c1ccc(OC)cc1-2 [Compound 340] | < 100 | – |
| COc1ccc2c(c1)-n1nnc(COc3ccccc3)c1Cc1c(C#N)ncn1-2 [Compound 224] | < 100 | – |
| Cc1nnn2c1Cc1c(C(=O)OCC(C)(C)C)ncn1-c1ccc(F)cc1-2 [Compound 113] | 100 to 1000 | – |
| COCc1nnc2n1Cc1c(COc3ccccn3)ncn1-c1ccc(Cl)cc1-2 [Compound 274] | 100 to 1000 | – |
| CCOCc1nnc2n1Cc1c(C3=N[C@@H](c4ccc(F)cc4)CO3)ncn1-c1ccc(Cl)cc1-2 [Compound 325] | < 100 | – |
| COc1ccc2c(c1)-n1nncc1Cc1c(C3=N[C@@H](c4ccccc4C)CO3)ncn1-2 [Compound 373] | < 100 | – |
| CC(C)C#Cc1ccc2c(c1)-n1nncc1Cc1c(C#CC(C)C)ncn1-2 [Compound 453] | 100 to 1000 | – |

| Structure (SMILES) | Ki [1] [nM] | Ki [nM] |
| --- | --- | --- |
| Clc1ccc2c(c1)-n1nncc1Cc1c(C#Cc3cccnc3)ncn1-2 [Compound 402] | < 100 | – |
| CCOCc1nnc2n1Cc1c(C3=NC(C)CO3)ncn1-c1ccc(Cl)cc1-2 (stereo not shown) [Compound 259] | < 100 | – |
| COc1ccc2c(c1)-n1nnc(COc3ccccc3)c1Cc1c(-c3noc(C)n3)ncn1-2 [Compound 182] | < 100 | – |
| CCOCc1nnc2n1Cc1c(C#Cc3ccccc3C)ncn1-c1ccc(Cl)cc1-2 [Compound 311] | < 100 | – |
| CCOC(=O)c1ncn2c1Cc1c(COc3cccc(OC)c3)nnn1-c1cc(OC)ccc1-2 [Compound 11] | < 100 | – |
| COc1ccc2c(c1)-n1nncc1Cc1c(C3=N[C@@H](c4cc(F)ccc4F)CO3)ncn1-2 [Compound 369] | < 100 | – |
| COc1ccc2c(c1)-n1nncc1Cc1c(C3=N[C@@H](c4ccc(C(F)(F)F)cc4)CO3)ncn1-2 [Compound 372] | < 100 | – |
| CCOCc1nnc2n1Cc1c(C#Cc3ccccc3F)ncn1-c1ccc(Cl)cc1-2 [Compound 307] | < 100 | – |
| COc1ccc2c(c1)-n1nncc1Cc1c(C#Cc3ccccc3)ncn1-2 [Compound 404] | < 100 | – |
| COc1ccc2c(c1)-n1nncc1Cc1c(C3=NCCO3)ncn1-2 [Compound 383] | < 100 | – |
| CC(C)OCc1nnc2n1Cc1c(C3=N[C@@H](c4ccccc4F)CO3)ncn1-c1ccc(Cl)cc1-2 [Compound 321] | 100 to 1000 | – |
| COCc1nnc2n1Cc1c(-c3nc(C(C)C)co3)ncn1-c1ccc(Cl)cc1-2 [Compound 246] | 100 to 1000 | – |
| CCC(=O)c1ncn2c1Cn1c(COc3ccccc3)nnc1-c1cc(OC)ccc1-2 [Compound 123] | – | > 1000 |
| Cc1nnn2c1Cc1c(-c3cnn(C)c3)ncn1-c1ccc(F)cc1-2 [Compound 152] | > 1000 | – |
| CC(C)c1nc(-c2ncn3c2Cc2c(C(=O)c4ccc(F)cc4)nnn2-c2ccc(F)cc2-3)no1 [Compound 230] | < 100 | – |
| C#Cc1ncn2c1Cc1cnnn1-c1cc(OC)ccc1-2 [Compound 403] | < 100 | – |
| C#Cc1ncn2c1C(Cc1ccccc1)c1cnnn1-c1cc(OC)ccc1-2 (stereo not shown) [Compound 449] | > 1000 | – |
| COc1ccc2c(c1)-n1nncc1Cc1c(-c3nc(C(C)C)co3)ncn1-2 [Compound 394] | < 100 | – |
| Cc1nnn2c1Cc1c(C(=O)OC(C)C)ncn1-c1ccc(F)cc1-2 [Compound 112] | < 100 | – |
| COCc1nnc2n1Cc1c(-c3nc(C)no3)ncn1-c1ccc(-c3cccnc3)cc1-2 [Compound 469] | 100 to 1000 | – |
| Cc1noc(-c2ncn3c2Cn2c(COc4ccccc4)nnc2-c2cc(F)ccc2-3)n1 [Compound 138] | 100 to 1000 | – |
| Cc1cnc(-c2ncn3c2Cc2c(C)nnn2-c2cc(F)ccc2-3)nc1 [Compound 144] | 100 to 1000 | – |
| COc1ccc2c(c1)-n1nncc1Cc1c(C3=N[C@@H](c4ccccc4F)CO3)ncn1-2 [Compound 366] | < 100 | – |
| COCc1nnc2n1Cc1c(C#CCc3cccc(F)c3)ncn1-c1ccc(Cl)cc1-2 [Compound 421] | < 100 | – |

| Structure (SMILES) | Ki [1] [nM] | Ki [nM] |
| --- | --- | --- |
| CCOC(=O)c1ncn2c1Cc1c(-c3ccccc3Cl)nnn1-c1cc(OC)ccc1-2 [Compound 279] | > 1000 | – |
| CC(C)OCc1nnc2n1Cc1c(-c3cnco3)ncn1-c1ccc(Cl)cc1-2 [Compound 315] | – | > 1000 |
| COCc1nnc2n1Cc1c(-c3nc(C)co3)ncn1-c1ccc(Cl)cc1-2 [Compound 244] | < 100 | – |
| Cc1ncn2c1Cc1c(C)nnn1-c1ccccc1-2 [Compound 121] | > 1000 | – |
| COCc1nnc2n1Cc1c(-c3nc4ccccc4o3)ncn1-c1ccc(Cl)cc1-2 [Compound 348] | 100 to 1000 | – |
| COc1ccc2c(c1)-n1nnc(-c3ccccc3)c1Cc1c(-c3nc(C(C)C)no3)ncn1-2 [Compound 272] | > 1000 | – |
| CCOC(=O)c1ncn2c1Cc1c(COc3ccc(C)cc3C)nnn1-c1cc(OC)ccc1-2 [Compound 12] | < 100 | – |
| CCC#Cc1ncn2c1Cn1c(COC)nnc1-c1cc(Cl)ccc1-2 [Compound 345] | < 100 | – |
| C#Cc1ncn2c1C(Cc1cccc(F)c1)(Cc1cccc(F)c1)c1cnnn1-c1cc(OC)ccc1-2 [Compound 450] | > 1000 | – |
| Cc1nnn2c1Cc1c(C3=N[C@@H](c4ccccc4)CO3)ncn1-c1ccc(Cl)cc1-2 [Compound 376] | 100 to 1000 | – |
| COCc1nnc2n1Cc1c(-c3ncco3)ncn1-c1c(Cl)cccc1-2 [Compound 466] | – | > 1000 |
| FC(F)(F)COCc1nnc2n1Cc1c(-c3nc(-c4ccccc4)co3)ncn1-c1ccc(Cl)cc1-2 [Compound 313] | < 100 | – |
| Clc1ccc2c(c1)-c1nnc(COc3ccccc3)n1Cc1c(C3OCCO3)ncn1-2 [Compound 204] | – | > 1000 |
| C#Cc1ccc2c(c1)-c1nnc(COC)n1Cc1c(C3=N[C@H](C(C)C)CO3)ncn1-2 [Compound 284] | 100 to 1000 | – |
| COCc1nnc2n1Cc1c(C3=NC(C)(C)CO3)ncn1-c1ccc(Cl)cc1-2 [Compound 297] | 100 to 1000 | – |
| CC(C)C#Cc1ncn2c1Cc1cnnn1-c1cc(Cl)ccc1-2 [Compound 415] | < 100 | – |
| CC#Cc1nc(C)n2c1Cn1c(COC(C)C)nnc1-c1cc(Cl)ccc1-2 [Compound 306] | – | > 1000 |
| COc1ccc2c(c1)-n1nnc(C)c1Cc1c(-c3nc(C(C)C)no3)ncn1-2 [Compound 277] | < 100 | – |
| COCc1nnc2n1Cc1cncn1-c1ccc(OC)cc1-2 [Compound 131] | – | > 1000 |
| COc1ccc2c(c1)-n1nnc(COc3cccc(Br)c3)c1Cc1c(C#N)ncn1-2 [Compound 225] | < 100 | – |
| COc1ccc2c(c1)-n1nncc1Cc1c(-c3nc(C)no3)ncn1-2 [Compound 258] | < 100 | – |
| COc1ccc2c(c1)-n1nncc1Cc1c(C#Cc3ccccc3F)ncn1-2 [Compound 411] | < 100 | – |
